The test system of experiment [1] is Human immunodeficiency virus 1. The experiment in a line: Antiviral activity against HIV1 infected in GFP expressing human MT4 cells assessed as inhibition of viral replication after 24 hrs in presence of 50% normal human serum. The format is functional, organism-based. The settings on record: Human immunodeficiency virus 1, MT4, 24 h.
The next experiment addresses Protease (Human immunodeficiency virus 1, UniProt Q9YQ12). The experiment in a line: Inhibition of HIV1 protease expressed in Escherichia coli using Val-Ser-Gln-Asn-(beta-naphtyl)Ala-Pro-Ile-Val as substrate preincubated for 30 mins followed by substrate addition measured after 1 hr by mass spectrometric method.
Experiment [2] concerns the target Protease (Human immunodeficiency virus 1) (UniProt Q9YQ12). Briefly: Potency index, ratio of MK-8718 IC50 to test compound IC50 for HIV1 protease.
For experiment [3], the system named is Human immunodeficiency virus 1. The experiment in a line: Potency index, ratio of MK-8718 EC50 to test compound EC50 for HIV1 infected in GFP expressing human MT4 cells assessed as inhibition of viral replication. Type of experiment: functional.

Sequence of Protease (Q9YQ12 whole entry): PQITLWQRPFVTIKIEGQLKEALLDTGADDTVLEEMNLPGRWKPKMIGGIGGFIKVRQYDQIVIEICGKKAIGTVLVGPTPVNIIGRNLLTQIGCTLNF
Sequence of Protease (Human immunodeficiency virus 1) (Q9YQ12 as listed by the source): as the sequence (Q9YQ12 whole entry) above

As to `C[C@H]1CN(S(=O)(=O)c2ccccc2)[C@@H](CCc2c(F)cccc2NC(=O)CC(c2ccc(F)cc2)c2ccc(F)cc2)CN1`, the EC50 (as a rule, the midpoint of the concentration-response curve) in experiment [1] was 700 nM.
The same measure, in the same setting: the same measure for `O=C(CC(c1ccc(F)cc1)c1ccc(F)cc1)Nc1cccc(F)c1CC[C@H]1CNCCN1S(=O)(=O)c1ccccc1`: 27 nM.
On the same count and under the same terms, to `COC(=O)N[C@H](C(=O)N[C@@H](Cc1ccccc1)[C@@H](O)CN(Cc1ccc(-c2ccccn2)cc1)NC(=O)[C@@H](NC(=O)OC)C(C)(C)C)C(C)(C)C` [ATAZANAVIR] belongs 12 nM; to `O=C(CC(c1ccc(F)cc1)c1ccc(F)cc1)Nc1cccc(F)c1CC[C@H]1CN[C@@H]2CCCS(=O)(=O)N1C2`, 21 nM; to `C[C@H]1CNC[C@H](CCc2c(F)cccc2NC(=O)CC(c2ccc(F)cc2)c2ccc(F)cc2)N1S(=O)(=O)c1ccccc1`, 17 nM.
Still for that read-out and setting: the same measure for `CC(C)CN(C[C@@H](O)[C@H](Cc1ccccc1)NC(=O)O[C@H]1CO[C@H]2OCC[C@H]21)S(=O)(=O)c1ccc(N)cc1`: 7 nM.
On to `N[C@H](C(=O)Nc1cncc(F)c1CC[C@H]1CN[C@@H]2CCCS(=O)(=O)N1C2)[C@@H](c1ccc(Cl)cc1)c1cc(F)cc(F)c1`, for which the midpoint of inhibition against Protease, the IC50, lay at 0.012 nM. For the same compound, in experiment [1], the EC50 was 2.8 nM. For the same compound, the Ratio IC50 in experiment [2] was determined as 60. In experiment [3], the “Ratio EC50” value turned out to be 10.
On to `C[C@@H]1CNC[C@H](CCc2c(F)cccc2NC(=O)CC(c2ccc(F)cc2)c2ccc(F)cc2)N1S(=O)(=O)c1ccccc1`, for which the EC50 in experiment [1] is 70 nM.
As to `C[C@@H]1CN(S(=O)(=O)c2ccccc2)[C@@H](CCc2c(F)cccc2NC(=O)CC(c2ccc(F)cc2)c2ccc(F)cc2)CN1`, in experiment [1], the EC50 was found to be 520 nM.
Take `N[C@H](C(=O)Nc1cncc(F)c1CC[C@@H]1CN[C@H](COC(=O)NCC(F)(F)F)CO1)[C@@H](c1ccc(Cl)cc1)c1cc(F)cc(F)c1`: the IC50 (usually the midpoint of a concentration-inhibition curve) at Protease was 0.7 nM. The EC50 in experiment [1] turned out to be 27 nM.
Turning to `O=C(CC(c1ccc(F)cc1)c1ccc(F)cc1)Nc1cccc(F)c1CC[C@@H]1CNCCN1S(=O)(=O)c1ccccc1`, the EC50 in experiment [1] came to 1200 nM.

The record behind these values is ChEMBL document CHEMBL4130597 (ACS Med Chem Lett, 2017).
